Source: US8735345B2, “Therapeutic composition” (Hoffmann la Roche Inc., priority 2009, dated 2014)

Experiments:
HCV replication = details: cited from earlier work
genotype 1 HCV = assay: HCV RNA viral load determination (COBAS AmpliPrep/COBAS TaqMan HCV Test) in a randomized, double-blind, placebo controlled, dose ranging study; assay type: in vivo, human; details: monotherapy 750 mg, bid; after 7 days of treatment
Description: A randomized, double-blind, placebo controlled, dose ranging study of Compound 1a and Compound 2 in adult patients with chronic hepatitis C genotype 1 was conducted. Approximately 54 treatment naïve males and females between 18 and 65 years of age (inclusive) with genotype 1 HCV infection who had not previously been treated with an interferon or investigational HCV therapeutic agent were enrolled. Approximately an additional 20 treatment patients who had failed treatment with the current standard of care (null, partial responders and relapsers) were enrolled. […] Subjects with liver cirrhosis or incomplete/transition to cirrhosis, or other forms of liver disease, anemia, HIV or HBV infection, hepatocellular carcinoma, cardiac disease or renal disease were excluded from this particular protocol, as well as pregnant or lactating women, women of childbearing potential, and male partners of women who are pregnant or lactating.
Seven groups, Groups I, II, III, IV, V, VI and VII, of subjects were studied. Blood samples were collected at time points to determine pharmacokinetics parameters, including Tmax, Cmax, Kel, T1/2, AUC, CL/F, Vd/F and accumulation ratio.
The specifics of Groups I, II, III, IV, V, VI and VII are shown in Table 1 below and pictorially in FIGS. 2 and 3. Group I included two arms with 8 subjects in Arm 1 and 8 subjects in Arm 2. […]

Compound: CC(C)(C)OC(=O)N[C@H]1CCCCCC=C[C@@H]2C[C@@]2(C(=O)NS(=O)(=O)C2CC2)NC(=O)[C@@H]2C[C@@H](OC(=O)N3Cc4cccc(F)c4C3)CN2C1=O [Compound 2, (1S,4R,6S,14S,18R)-4-Fluoro-1,3-dihydro-isoindole-2-carboxylic acid 14-tert-butoxycarbonylamino-4-cyclopropanesulfonylaminocarbonyl-2,15-dioxo-3,16-diaza-tricyclo[14.3.0.04,6]nonadec-7-en-18-yl ester]
- inhibition of HCV replication (HCV replication): effective in inhibiting HCV replication

Compound: C[C@@]1(F)[C@H](O)[C@@H](CO)O[C@H]1n1ccc(N)nc1=O [Compound 1, β-D-2′-deoxy-2′-fluoro-2′-C-methylcytidine]
- inhibition of HCV replication (HCV replication): effective in inhibiting HCV replication

Compound: diisobutyl ester prodrug of β-D-2′-deoxy-2′-fluoro-2′-C-methylcytidine [Compound 1a]
- mean log change from baseline in HCV RNA viral load (genotype 1 HCV): −1.3 log IU/mL
